Assay: Test for encapsulating rate of drugs in nanoparticles encapsulating double drugs
Type: physicochemical
Settings: trend as pH of the aqueous mixture solution increased (pH 7.5 to 11, FIG. 1)
Protocol: The synthesized nanoparticles encapsulating double drugs were placed in a concentrating centrifuge tube, and perform centrifugation at a speed of 4,000 rpm for 30 minutes.
(1). Encapsulating Rate of Cisplatin
The clear solution in the concentrating centrifuge tube was diluted 20 folds and mixed with 0.14% solution of o-phenylenediamine in dimethylformamide at a ratio of 1:1, the mixture was heated at 100° C. for 30 minutes and then was cooled in a refrigerator at −20° C. for 10 minutes, finally, the solution was examined for the peak value at a wavelength of 705 nm with UV-visual spectrum, and content of non-encapsulated Cisplatin was converted from the peak value, thereby giving the encapsulating rate of Cisplatin.
(2). Encapsulating Rate Test of Demethoxycurcumin
The nanoparticles on the filter membrane of the concentrating centrifuge tube were re-dissolved in double-distilled water, the solution was mixed with methanol at a ratio of 1:1, and the mixture was analyzed using HPLC. The determination was performed at a flow rate of 1 mL/min under the detection condition at a wavelength of 425 nm, using C18 as stationary phase and acetonitrile-0.3% FA (50:50, v/v) as mobile phase, and the detection result was converted into the concentration of demethoxycurcumin to obtain the encapsulating rate of the drug.

N.N.[Cl][Pt][Cl] [Cisplatin]
encapsulating rate: increased
